Measurements taken from patent US20250213614A1, “Modified RELA Protein for Inducing Interferon Expression and Engineered Immune Cells with Improved Interferon Expression” (Institut Curie, priority 2022, published 2025).

Key:
Format in all cases: cell-based, human
[1] = system: STING, TBK1, IRF3, RELA, IRF7; experiment: Western blot of key signaling proteins involved in STING signaling
Description: 0.5 million cells were lysed for 30 minutes on ice in 50 μl RIPA buffer (50 mM Tris HCl, 150 mM NaCl, 0.1% SDS, 0.5% DOC, 1% NP-40) with Protease inhibitor (Roche #1187358001). To evaluate, phospho-proteins 50 mM NaF and 1 mM sodium orthovanadate were added to the lysis buffer. Protein lysates were cleared by centrifugation at 12,000 g for 10 to 12 minutes at 4° C. 10 μl of 6× Laemmli buffer (fisher scientific #J61337) was added to 50 μl protein lysates and samples were boiled at 95° C. for 15 minutes. Protein samples were resolved on 4%-20% Biorad precast SDS-PAGE gels (#5671125) and transferred onto PVDF membranes (BioRad #1704157). Membranes were blocked in 5% non-fat dry milk in PBS 0.1% tween or in TBS 5% BSA 0.1% Tween to detect phosphorylated proteins. Primary antibodies were used at 1:1000:phospho-STING (clone-D7C3S), STING (clone-D2P2F), serine 172 phospho-TBK1 (clone-D52C2), TBK1 (clone-D11B4), serine 396 phospho IRF3 (clone-D6O1M), IRF3 (clone-D83B9), RELA (clone-C22B4), IRF7 (clone-12G9A36), cGAS (clone-D1 D3G), Actin (clone-C4), Sendai viral proteins (Biozol #MBL-PD029). Secondary anti-rabbit or anti-mouse antibody were used at 1:10,000 (santa cruz #sc-2357, #sc-516102). ECL signal (Biorad #1705061 and #1705062) was recorded on a ChemiDoc Touch Biorad Imager. Data was analyzed and quantified with Image Lab software (Biorad). In figures, dotted lines indicate reordering of lanes from a single original membrane for visualization purpose.

CD19+ mKate2+A549 cells = experiment: CAR-T tumor spheroid killing assay
Description: CD19+ mKate2+A549 cells were produced by lentiviral transduction using pCDH-CMV-CD19 puro and ILV-EF1a-mKate-9-X01 (Flash therapeutics) lentivectors. 1,000 cells were plated 4 days prior to co-culture in low-cluster 96 well plates (Costar #7007) and allowed to form spheroids in DMEM 10% FBS 5% PS. Total CD3+ T cells were isolated by negative selection from PBMCs (Stemcell #17951) and stimulated with Dynabeads at a ratio of 1:3 (beads:cell). Cells were cultured at 1 million per ml in X-VIVO 15 with 5% PS, 5% decomplemented human serum (Sigma) and 50 μM 2-mercaptoethanol (GIBCO #31350-010). 24 hours following TCR stimulation 100,000 cells in 100 μl were co-transduced with 100 μl of lentivector viral particles (pTRIP-SFFV-GFP or pTRIP-SFFV-GFPRELAK5R) combined with the CAR lentivirus (rLV.EFA.19BBz, Flash therapeutics) at a multiplicity of infection (MOI) of 10 (corresponding usually to less than 1 μl). Spinoculation was carried out at 1200 g for 2 hours at 25° C. Cells were expanded for 48 hours with fresh media and 300 U/ml IL-2. 3 days following transduction T cells were stained with CD19 CAR detection reagent (miltenyi 130-115-965) for 15 minutes at 4° C., washed twice and subsequently with secondary antibody (invitrogen #S21374) for 30 minutes at 4° C. Cells were fixed and acquired on a FACSVerse (BD). The next day, Dynabeads were removed by magnetic separation and 250, 500 or 1,000 CAR+ cells were added per well of A549 spheroids in quadruplicates. Plates were then placed in an IncuCyteS3 and images were acquired using a 10× objective ([…]/pixel) every 3 hours for 5 to 6 days. Images were analysed using the IncuCyte S3 software. At the end of the culture, supernatants were harvested and assayed for IFN concentrations.

cGAS = cGAS localization by confocal microscopy in CD4+ T cells; details: activated CD4+ T cells overexpressing IRF3 or RELA K5R, FIG. 5D, 5E
Description: 4 to 5 days following transduction, 500,000 cells were plated on 0.1% poly-L lysine in water (Sigma #8920) coated coverslips and left for 30 minutes to attach. Cells were fixed in PBS 4% paraformaldehyde for 20 minutes at room temperature (RT). Coverslips were washed twice in PBS and quenched with 500 μl of freshly prepared PBS Glycine (375 mg Glycine in 50 mL of PBS) for 10 minutes at room temperature. […] Coverslips were incubated with primary antibody against cGAS (clone D1 D3G) or isotype control (clone DA1E) at a concentration of 0.085 μg/ml in PBS 0.2% BSA 0.05% saponin and left overnight at 4° C. in a moist chamber. Coverslips were washed 5 times with PBS 0.2% BSA 0.05% saponin and incubated in secondary antibody goat anti-Rabbit IgG at 1:400 (Invitrogen #A21246) for 45 minutes at RT. Coverslips were washed 5 times with PBS 0.2% BSA 0.05% saponin, rinsed in water and mounted on a glass slide using 10 μl fluoromount-G with DAPI (Invitrogen #00-4959-520). Glass slides were allowed to dry in a 37° C. chamber for 30 minutes and stored at 4° C. Images were acquired on a Leica Dml8 inverted microscope equipped with an SP8 confocal unit using a 40× (1.3 NA) oil objective. Image analysis was performed using Fiji software^77. […] Average cGAS and GFP intensities were measured in the whole cell, the nuclei and the cytosol (defined by the whole cell excluding the nuclear region).

[2] = system: IFNL1 and IFNB transcripts; experiment: RT-qPCR gene expression analysis in CD4+ T cells; details: IRF3 over-expression in CD4+ T cells, data not shown
Description: RNA was extracted from 0.4-1 million cells using the Nucleospin RNA II kits (Macherey-Nagel #740955.50). cDNA was synthesized using random primers (invitrogen #48190-011) from 0.1 μg RNA using Superscript III Reverse transcriptase (fisher scientific #18080044). Real-time qPCR (RT-qPCR) was carried out in 20 μl reactions using SYBR Green I Master (Roche #4887352001). Primers used were as follows: […]

Molecule | endogenous RELA expression ([1]; overexpression in CD4+ T cells and MDDC, FIG. 2C) | IFNL1 at the end of co-culture (CD19+ mKate2+A549 cells; 6 days co-culture, all dilutions of CART and RELA K5R cells) | tumor growth with lower numbers of CAR T cells (CD19+ mKate2+A549 cells; FIG. 6F, left panel) | tumor spheroid size / elimination of tumor cells (CD19+ mKate2+A549 cells; co-culture 5-6 days, CAR-positive cell numbers normalized, FIG. 6E, 6F) | proliferation rates as cause of improved killing capacity (CD19+ mKate2+A549 cells; data not shown) | cGAS localization (predominantly nuclear) (cGAS) | phospho-IRF3 levels in response to cGAMP ([1]; IRF3 over-expression, equivalent in CD4+ T cells and MDDC, FIG. 3C) | IFNL1 and IFNB transcripts in response to cGAMP [2]
RELA K5R: RELA mutant converting five lysine residues (K122, K123, K310, K314, K315) to arginine, expressed from lentivector | no impact | detected | delay of tumor growth was also observed | significantly more efficiently eliminated | not due to increased proliferation rates | remained unchanged |  | 
IRF3: interferon Regulatory Factor 3, over-expressed from lentivector (protein, UniProt Q14653 1-427, looked up) Interferon regulatory factor 3: MGTPKPRILPWLVSQLDLGQLEGVAWVNKSRTRFRIPWKHGLRQDAQQEDFGIFQAWAEATGAYVPGRDKPDLPTWKRNFRSALNRKEGLRLAEDRSKDPHDPHKIYEFVNSGVGDFSQPDTSPDTNGGGSTSDTQEDILDELLGNMVLAPLPDPGPPSLAVAPEPCPQPLRSPSLDNPTPFPNLGPSENPLKRLLVPGEEWEFEVTAFYRGRQVFQQTISCPEGLRLVGSEVGDRTLPGWPVTLPDPGMSLTDRGVMSYVRHVLSCLGGGLALWRAGQWLWAQRLGHCHTYWAVSEELLPNSGHGPDGEVPKDKEGGVFDLGPFIVDLITFTEGSGRSPRYALWFCVGESWPQDQPWTKRLVMVKVVPTCLRALVEMARVGGASSLENTVDLHISNSHPLSLTSDQYKAYLQDLVEGMDFQGPGES |  |  |  |  |  | remained unchanged | massive increase | increased
